Experimental data taken from publication PMC5970165, “Development and validation of a LC-MS/MS assay for pharmacokinetic studies of complement C5a receptor antagonists PMX53 and PMX205 in mice” (Scientific Reports, 2018).
Values joined by “and” are separate entries in the source; they are usually repeats but may differ in a detail not shown here. Equal entries are not always repeated. Values belong to the molecule of their own block, whether it stands above or below them. Bridge positions count the residues as written; N and C are the ends. Square brackets hold non-standard residues; d marks the D form. Peptide text beside a SMILES is read from it. * marks the point of attachment. Hydrocinnamoyl = O=C(CCc1ccccc1)*; dCha = N[C@H](CC1CCCCC1)C(=O)O; Orn = NCCC[C@H](N)C(=O)O

Experiments:
[1] = Serum stability, incubation at 37 °C; details: mouse serum, 1 µg/ml, up to 60 min
Procedure: (§1) Plasma and serum stability was determined by incubation experiments. For plasma stability, whole blood was collected via cardiac puncture from anaesthetized wild-type mice in tubes containing EDTA, and plasma was extracted by centrifuging blood for 15 min at 1500 × g at 4 °C. […] Samples (n = 4) were quenched at regular intervals of 5 min, 10 min, 15 min, 30 min and 60 min by stopping the reaction with the addition of ice cold acetonitrile, and processed as described earlier for quantitative determination of unchanged analytes. For serum stability, whole blood was collected via cardiac puncture from anaesthetized wild-type mice in tubes and kept on ice until completely clotted. Serum was collected by centrifuging clotted blood for 15 min at 1500 × g at 4 °C. […] Briefly, on the day of analysis, samples were deproteinized with 1:3 ice cold acetonitrile and spiked with 10 µl of 100 ng/ml internal standard. Samples were vortexed, centrifuged and supernatants were dried by vacuum concentration at room temperature. Dried samples were reconstituted in 50 µl of 75% methanol and analysed using LC-MS/MS. The stability the C5aR1 antagonists were expressed as a percentage of the concentration detected at different time points in comparison to the concentration detected immediately following addition of antagonists i.e. at t = 0 min.

[2] = Plasma stability, incubation at 37 °C; details: mouse plasma, 1 µg/ml, up to 60 min
Procedure: as §1

[3] = Gastric environment stability (gastric lavage fluid and gastric homogenate); details: 1 µg/ml, 37 °C, up to 60 min
Procedure: The gastric stability of analytes was performed using gastric contents of wild-type mice with free access to food and water overnight (i.e. modelling physiological conditions). […] The stomach was clamped and removed from the abdominal cavity, and the stomach cavity was repeatedly lavaged with sterile saline (5 ml in total) and the lavage fluid collected and combined. The stomach tissue was then homogenized with an equal volume of milliQ water. Lavage fluid and stomach homogenate were centrifuged (400 × g, 30 min at 4 °C) and the supernatant was collected and stored on ice. A solution of C5aR1 antagonist (1 µg/ml) were incubated at 37 °C for up to 60 minutes in gastric lavage fluid and gastric homogenate supernatant, and samples (n = 4) were quenched at regular time intervals by the addition of ice-cold acetonitrile. Samples were processed as described earlier for the quantitative determination of unchanged analytes along with an internal standard.

[4] = Intestinal environment stability (intestinal washing and intestinal homogenate); details: 1 µg/ml, 37 °C, up to 60 min
Procedure: Likewise gastric environment stability, intestinal stability of analytes was performed using intestinal contents of wild-type mice with free access to food and water overnight. Mice were anaesthetized and euthanized by cervical dislocation. The small intestine was clamped and removed from the abdominal cavity. The intestine was repeatedly lavaged with sterile saline (5 ml in total) and intestinal washings were collected and combined. The intestine was also homogenized with an equal volume of milliQ water. Intestinal lavage and intestinal homogenates were centrifuged (400 × g, 30 min at 4 °C) and the supernatant was collected and stored on ice. A solution of C5aR1 antagonist (1 µg/ml) was incubated at 37 °C for up to 60 minutes in intestinal lavage and intestinal homogenate supernatants, and samples (n = 4) were collected at regular time intervals by the addition of ice-cold acetonitrile. Samples were processed as described earlier for quantitative determination of unchanged analytes along with internal standard.

[5] = Intravenous pharmacokinetics in mice (plasma, brain, spinal cord; LC-MS/MS, non-compartmental analysis); details: for MRT inf: MRT 0-inf_obs
Procedure: (§2) The validity of the developed bioanalytical LC-MS/MS method was assessed by quantitative determination of C5aR1 antagonist levels in mice plasma and tissue following i.v. drug administration. All experimental procedures and animal care were performed following approval from the University of Queensland Animal Care and Use Committee and conducted in accordance with the National Health and Medical Research Council of Australia policies and guidelines for the care and use of animals for scientific purposes. C57BL/6 J mice (males, 10–12 weeks old) were purchased from Animal Resources Centre, Western Australia. An i.v. dose of 1 mg/kg was selected based upon previous pharmacokinetic studies in rat and in vivo efficacy studies in mice[6],[28]. After overnight fasting, mice (n = 4 per time point) were anaesthetized with zolazapam (50 mg/kg) and xylazine (12 mg/kg) via i.p. injection. […] Blood samples were collected via cardiac puncture at 2.5 min, 5 min, 10 min, 15 min, 30 min, 45 min, 60 min and 90 minutes in tubes containing EDTA followed by plasma separation by centrifugation at 1500 × g at 4 °C. Plasma samples were stored at −80 °C for further processing and analysis. Mice were immediately perfused transcardially with sterile saline to remove circulating drug from the blood vasculature. Whole brain and spinal cord samples were obtained and homogenized in an equal weight-volume of milliQ water. […] Pharmacokinetics data analysis was performed using Pharsight WINNONLIN software (version 6.4) by a non-compartmental analysis method to obtain various pharmacokinetic parameters.

in vivo = details: male, C57BL/6 J, mouse, iv, 1 mg/kg
Procedure: as §2

[6] = brain, single i.v. 1 mg/kg, mice
[7] = male, C57BL/6 J, mouse, brain, iv, 1 mg/kg, single i.v. 1 mg/kg, mice
[8] = male, C57BL/6 J, mouse, plasma, iv, 1 mg/kg
[9] = male, C57BL/6 J, mouse, plasma, iv, 1 mg/kg, single i.v. 1 mg/kg, mice
[10] = male, C57BL/6 J, mouse, spinal cord, iv, 1 mg/kg, single i.v. 1 mg/kg, mice
[11] = spinal cord, single i.v. 1 mg/kg, mice

- stability in serum (percentage of concentration detected vs t = 0 min) [1]: 91.4 ± 1.4%
- stability in plasma (percentage of concentration detected vs t = 0 min) [2]: 91.4 ± 3.1%
- stability in gastric homogenates (unchanged form, % of t = 0 min) ([3]; mouse gastric homogenates): 6.7 ± 4.2%
- stability in gastric lavage (unchanged form, % of t = 0 min) ([3]; mouse gastric lavage fluid): < 25% and 23.3 ± 1.7%
- stability in intestinal homogenates (unchanged form) ([4]; mouse intestinal homogenates): greater than 35%
- stability in intestinal washing (unchanged form) ([4]; mouse intestinal washing): more than 85%
- AUC 0-inf_obs [5, 6]: 12.18 µg·min/g
- Cl_obs [5, 6]: 2.46 g/min
- Vss_obs [5, 6]: 553.84 g
- Vz_obs [5, 6]: 572.84 g
- AUC(0-t) ([5]; brain, t = 90 min, single i.v. 1 mg/kg, mice): 4.18 µg·min/g
- Cmax [5, 7]: 108 ng/g
- MRT inf [5, 7]: 3.75 h
- half-life ([5]; male, C57BL/6 J, mouse, brain, iv, 1 mg/kg, t1/2, brain, single i.v. 1 mg/kg, mice): 2.69 h
- AUC(0-inf) [5, 8]: 5810 ng·h/mL
- AUC(0-t) [5, 8]: 5800 ng·h/mL
- clearance [5, 8]: 0.086 mL/min
- Cmax [5, 9]: 29000 ng/mL
- MRT inf [5, 9]: 0.15 h
- Vd ([5]; male, C57BL/6 J, mouse, plasma, iv, 1 mg/kg, Vss_obs, plasma, single i.v. 1 mg/kg, mice): 0.00079 L
- Vd ([5]; male, C57BL/6 J, mouse, plasma, iv, 1 mg/kg, Vz_obs, single i.v. 1 mg/kg, mice): 0.00132 L
- half-life ([5]; male, C57BL/6 J, mouse, plasma, iv, 1 mg/kg, t1/2, plasma, single i.v. 1 mg/kg, mice): 0.17 h
- Cmax [5, 10]: 213 ng/g
- MRT inf [5, 10]: 2.49 h
- half-life ([5]; male, C57BL/6 J, mouse, spinal cord, iv, 1 mg/kg, t1/2, spinal cord, single i.v. 1 mg/kg, mice): 1.78 h
- AUC 0-inf_obs [5, 11]: 17.42 µg·min/g
- Cl_obs [5, 11]: 1.722 g/min
- Vss_obs [5, 11]: 257.98 g
- Vz_obs [5, 11]: 265.65 g
- AUC(0-t) ([5]; spinal cord, t = 90 min, single i.v. 1 mg/kg, mice): 7.95 µg·min/g
SMILES: N=C(N)NCCC[C@@H]1NC(=O)[C@H](Cc2c[nH]c3ccccc23)NC(=O)[C@@H](CC2CCCCC2)NC(=O)[C@@H]2CCCN2C(=O)[C@@H](NC(=O)CCc2ccccc2)CCCNC1=O [PMX205, hydrocinnamate-[Orn-Pro-dCha-Trp-Arg]] (Hydrocinnamoyl-[Orn]P[dCha]WR; lactam 1-C)

- AUC(0-inf) (in vivo): 3830 ng·h/mL
- AUC(0-t) (in vivo): 3410 ng·h/mL
- clearance (in vivo): 0.18 mL/min
- Cmax (in vivo; Cmax): 11900 ng/mL
- Vd (in vivo; Vss_obs): 0.00328 L
- Vd (in vivo; Vz_obs): 0.00826 L
SMILES: CC(=O)N[C@@H](Cc1ccccc1)C(=O)N[C@H]1CCCNC(=O)[C@H](CCCNC(=N)N)NC(=O)[C@H](Cc2c[nH]c3ccccc23)NC(=O)[C@@H](CC2CCCCC2)NC(=O)[C@@H]2CCCN2C1=O [PMX53, Ac-Phe-[Orn-Pro-dCha-Trp-Arg]]
